Results published in patent US9340590B2 (priority 2011, dated 2016).
Where two headings read alike, the source gives them in different places. Positions of bridges follow the written chain, without caps; N, C: chain ends. Non-standard residues stand in square brackets, D forms with d. Residues, ends and D or L forms follow the SMILES beside them. 1Nal = N[C@@H](Cc1cccc2ccccc12)C(=O)O; NMeF = CN[C@@H](Cc1ccccc1)C(=O)O

What was measured:
Assay in all cases: cell-based
[1] = target: hNav1.7 (Homo sapiens, UniProt Q15858); type: cell-based
[2] = target: hNav1.5 (Homo sapiens, UniProt Q14524)
hNav1.5, sequence (Q14524 whole entry, looked up): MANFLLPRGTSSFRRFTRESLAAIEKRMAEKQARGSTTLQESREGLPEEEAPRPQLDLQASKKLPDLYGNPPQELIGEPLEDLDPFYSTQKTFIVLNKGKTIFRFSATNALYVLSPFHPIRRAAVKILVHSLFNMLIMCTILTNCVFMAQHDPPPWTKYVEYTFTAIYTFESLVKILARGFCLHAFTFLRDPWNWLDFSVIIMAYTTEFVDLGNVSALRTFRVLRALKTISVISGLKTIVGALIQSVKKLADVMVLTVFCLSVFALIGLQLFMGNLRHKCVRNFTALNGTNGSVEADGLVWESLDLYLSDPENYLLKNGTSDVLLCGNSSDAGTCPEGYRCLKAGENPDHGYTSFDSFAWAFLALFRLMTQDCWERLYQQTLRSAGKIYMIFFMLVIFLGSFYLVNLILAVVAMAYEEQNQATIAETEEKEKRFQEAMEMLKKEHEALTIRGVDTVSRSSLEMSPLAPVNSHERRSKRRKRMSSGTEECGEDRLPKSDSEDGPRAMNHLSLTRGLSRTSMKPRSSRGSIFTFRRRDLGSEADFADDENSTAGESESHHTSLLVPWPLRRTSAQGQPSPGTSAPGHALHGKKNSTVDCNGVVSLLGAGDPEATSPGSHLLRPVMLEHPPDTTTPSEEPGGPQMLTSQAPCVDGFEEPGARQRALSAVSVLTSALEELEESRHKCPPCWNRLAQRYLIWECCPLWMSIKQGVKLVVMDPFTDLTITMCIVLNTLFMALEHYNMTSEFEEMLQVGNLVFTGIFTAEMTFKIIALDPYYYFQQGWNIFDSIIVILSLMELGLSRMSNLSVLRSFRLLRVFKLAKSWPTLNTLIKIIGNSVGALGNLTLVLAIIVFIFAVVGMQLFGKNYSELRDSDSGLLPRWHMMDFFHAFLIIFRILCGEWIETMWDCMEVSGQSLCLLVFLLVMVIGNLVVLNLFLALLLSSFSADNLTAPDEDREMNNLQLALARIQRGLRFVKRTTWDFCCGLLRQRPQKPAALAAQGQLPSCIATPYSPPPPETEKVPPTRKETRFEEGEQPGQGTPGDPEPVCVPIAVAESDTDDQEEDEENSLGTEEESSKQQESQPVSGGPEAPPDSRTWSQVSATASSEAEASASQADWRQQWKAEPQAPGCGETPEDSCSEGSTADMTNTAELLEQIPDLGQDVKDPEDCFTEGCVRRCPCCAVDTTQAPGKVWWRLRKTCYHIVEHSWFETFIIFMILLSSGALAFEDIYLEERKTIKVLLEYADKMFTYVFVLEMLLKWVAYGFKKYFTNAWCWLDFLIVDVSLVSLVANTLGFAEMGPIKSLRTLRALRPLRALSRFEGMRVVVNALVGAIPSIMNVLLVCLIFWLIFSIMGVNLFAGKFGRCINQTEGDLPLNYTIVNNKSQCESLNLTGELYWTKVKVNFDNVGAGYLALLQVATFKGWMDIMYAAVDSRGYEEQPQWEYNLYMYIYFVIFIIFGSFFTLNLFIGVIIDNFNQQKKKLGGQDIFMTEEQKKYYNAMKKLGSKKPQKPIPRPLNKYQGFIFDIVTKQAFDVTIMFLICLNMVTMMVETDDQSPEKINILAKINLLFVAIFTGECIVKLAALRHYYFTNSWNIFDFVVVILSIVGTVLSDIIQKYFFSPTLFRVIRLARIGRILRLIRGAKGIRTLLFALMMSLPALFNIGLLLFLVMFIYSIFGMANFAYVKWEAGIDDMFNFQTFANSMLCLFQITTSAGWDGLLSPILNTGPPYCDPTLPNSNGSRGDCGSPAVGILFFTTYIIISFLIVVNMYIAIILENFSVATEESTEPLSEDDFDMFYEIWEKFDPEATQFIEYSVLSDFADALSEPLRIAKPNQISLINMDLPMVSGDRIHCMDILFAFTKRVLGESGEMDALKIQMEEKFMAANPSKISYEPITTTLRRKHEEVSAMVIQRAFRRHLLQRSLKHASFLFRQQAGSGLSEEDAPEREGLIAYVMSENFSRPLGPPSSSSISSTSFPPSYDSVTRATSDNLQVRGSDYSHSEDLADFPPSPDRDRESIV

[3] = target: hNav1.3 (Homo sapiens, UniProt Q9NY46); conditions: IonWorks Quattro, read-out: IWQ Use Nav1.3
hNav1.3, sequence (Q9NY46 whole entry, looked up): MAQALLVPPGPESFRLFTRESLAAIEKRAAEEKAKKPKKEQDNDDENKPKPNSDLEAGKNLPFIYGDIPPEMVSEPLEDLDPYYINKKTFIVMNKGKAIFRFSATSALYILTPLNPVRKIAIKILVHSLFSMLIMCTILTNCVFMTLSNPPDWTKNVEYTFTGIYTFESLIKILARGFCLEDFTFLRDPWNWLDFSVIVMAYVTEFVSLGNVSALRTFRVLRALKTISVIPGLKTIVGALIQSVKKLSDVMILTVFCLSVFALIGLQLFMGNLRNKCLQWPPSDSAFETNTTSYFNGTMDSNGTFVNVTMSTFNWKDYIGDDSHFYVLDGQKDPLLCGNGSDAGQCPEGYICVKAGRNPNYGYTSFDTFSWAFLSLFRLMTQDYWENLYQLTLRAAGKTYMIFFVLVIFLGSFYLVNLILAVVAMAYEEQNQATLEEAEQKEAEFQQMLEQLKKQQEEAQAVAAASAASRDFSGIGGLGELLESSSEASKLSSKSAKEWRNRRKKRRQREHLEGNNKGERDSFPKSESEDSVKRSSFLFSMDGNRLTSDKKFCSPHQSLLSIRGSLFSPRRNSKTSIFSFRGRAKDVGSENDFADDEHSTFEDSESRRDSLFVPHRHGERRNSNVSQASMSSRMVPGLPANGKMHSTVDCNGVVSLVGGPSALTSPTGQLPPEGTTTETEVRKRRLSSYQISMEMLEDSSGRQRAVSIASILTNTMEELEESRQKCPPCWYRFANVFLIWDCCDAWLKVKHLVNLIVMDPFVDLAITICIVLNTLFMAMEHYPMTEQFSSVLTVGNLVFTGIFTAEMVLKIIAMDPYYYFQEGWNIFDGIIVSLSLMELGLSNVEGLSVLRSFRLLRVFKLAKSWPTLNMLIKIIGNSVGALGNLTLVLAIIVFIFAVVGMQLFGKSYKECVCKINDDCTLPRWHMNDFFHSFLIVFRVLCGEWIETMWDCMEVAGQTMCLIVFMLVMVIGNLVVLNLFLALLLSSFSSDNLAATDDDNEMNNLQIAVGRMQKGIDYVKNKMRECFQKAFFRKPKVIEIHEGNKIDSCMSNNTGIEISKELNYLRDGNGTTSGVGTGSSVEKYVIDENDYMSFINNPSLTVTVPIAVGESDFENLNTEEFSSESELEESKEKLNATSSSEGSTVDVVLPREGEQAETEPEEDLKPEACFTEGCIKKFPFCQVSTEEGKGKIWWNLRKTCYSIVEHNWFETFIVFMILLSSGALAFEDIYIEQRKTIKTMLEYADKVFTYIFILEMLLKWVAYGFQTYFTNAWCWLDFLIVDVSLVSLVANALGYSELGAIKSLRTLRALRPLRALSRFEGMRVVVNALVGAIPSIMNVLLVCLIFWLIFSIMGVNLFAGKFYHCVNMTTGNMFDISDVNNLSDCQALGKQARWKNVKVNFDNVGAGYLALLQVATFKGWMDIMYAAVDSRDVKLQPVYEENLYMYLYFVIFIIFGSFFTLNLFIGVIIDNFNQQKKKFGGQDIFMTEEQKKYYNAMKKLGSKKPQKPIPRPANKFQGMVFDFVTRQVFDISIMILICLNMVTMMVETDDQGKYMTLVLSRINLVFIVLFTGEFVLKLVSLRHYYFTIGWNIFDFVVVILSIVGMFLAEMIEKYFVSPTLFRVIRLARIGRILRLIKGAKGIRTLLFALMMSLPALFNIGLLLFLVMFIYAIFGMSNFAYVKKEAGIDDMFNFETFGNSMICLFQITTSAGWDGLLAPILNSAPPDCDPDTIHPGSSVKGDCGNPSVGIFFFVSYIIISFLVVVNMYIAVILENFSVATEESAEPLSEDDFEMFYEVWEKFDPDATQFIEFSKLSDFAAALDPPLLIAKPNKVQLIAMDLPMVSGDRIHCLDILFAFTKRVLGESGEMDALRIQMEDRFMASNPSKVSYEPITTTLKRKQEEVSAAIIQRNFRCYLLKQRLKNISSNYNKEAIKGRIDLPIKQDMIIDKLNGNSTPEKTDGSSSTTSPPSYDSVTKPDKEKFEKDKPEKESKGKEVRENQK

[4] = IonWorks Quattro, Use, read-out: IWQ Use Nav1.5

CC[C@H](C)[C@@H]1NC(=O)[C@@H]2CSSC[C@@H]3NC(=O)[C@H](C(C)C)NC(=O)[C@H](CC(C)C)NC(=O)[C@H](CC(N)=O)NC(=O)[C@@H]4CCCN4C(=O)[C@H](CCCNC(=N)N)NC(=O)[C@H](CSSC[C@H](NC(=O)[C@@H](N)CC(=O)O)C(=O)N[C@@H](CC(C)C)C(=O)NCC(=O)N[C@@H](Cc4cccc5ccccc45)C(=O)N[C@@H](CCSC)C(=O)N[C@@H](CCCNC(=N)N)C(=O)N[C@@H](CCCCN)C(=O)N2)NC(=O)[C@H](CSSC[C@@H](C(=O)N[C@@H](CCCCN)C(=O)N[C@@H](Cc2ccc(O)cc2)C(=O)N[C@H](C(=O)N[C@@H](Cc2ccccc2)C(N)=O)C(C)C)NC(=O)[C@H](Cc2c[nH]c4ccccc24)NC(=O)[C@H](CCCCN)NC(=O)[C@H](Cc2c[nH]cn2)NC(=O)[C@H]([C@@H](C)O)NC(=O)[C@H](CCCNC(=N)N)NC(=O)[C@H](CO)NC3=O)NC(=O)[C@H](CCCCN)NC(=O)[C@H](CC(=O)O)NC(=O)[C@H](CC(N)=O)NC(=O)[C@H](CC(=O)O)NC(=O)[C@@H]2CCCN2C1=O [SEQ ID NO: 105] gave an IC50 ([1]; IonWorks Quattro, clamped to −110 mV, depolarized to −10 mV, 5 min after compound, n=2, read-out: IWQ Use Nav1.7) of 80 nM, an IC50 ([2]; IWQ Use Nav1.5) of 13400 nM and an IC50 ([3]; clamped to −110 mV, depolarized to −10 mV, 5 min after compound, n=2) of 100 nM.
Molecule CC[C@H](C)[C@@H]1NC(=O)[C@@H]2CSSC[C@@H]3NC(=O)[C@H](C(C)C)NC(=O)[C@H](CC(C)C)NC(=O)[C@H](CC(N)=O)NC(=O)[C@@H]4CCCN4C(=O)[C@H](CCCNC(=N)N)NC(=O)[C@H](CSSC[C@H](NC(=O)[C@@H](N)CC(=O)O)C(=O)N[C@@H](CC(C)C)C(=O)NCC(=O)N[C@@H](Cc4ccccc4)C(=O)N[C@@H](CCSC)C(=O)N[C@@H](CCCNC(=N)N)C(=O)N[C@@H](CCCCN)C(=O)N2)NC(=O)[C@H](CSSC[C@@H](C(=O)N[C@@H](CCCCN)C(=O)N[C@@H](Cc2ccc(O)cc2)C(=O)N[C@H](C(=O)N[C@@H](Cc2ccccc2)C(N)=O)C(C)C)NC(=O)[C@H](Cc2c[nH]c4ccccc24)NC(=O)[C@H](CCCCN)NC(=O)[C@H](Cc2c[nH]cn2)NC(=O)[C@H]([C@@H](C)O)NC(=O)[C@H](CCCNC(=N)N)NC(=O)[C@H](CO)NC3=O)NC(=O)[C@H](CCCCN)NC(=O)[C@H](CC(=O)O)NC(=O)[C@H](CC(N)=O)NC(=O)[C@H](Cc2ccc(O)cc2)NC(=O)[C@@H]2CCCN2C1=O [compound 197] (H-DCLGFMRKCIPYNDKCCRPNLVCSRTHKWCKYVF-NH2; disulfide 2-17, 9-23, 16-30) has an IC50 ([1]; IonWorks Quattro, Use, read-out: IWQ Use Nav1.7) of 98 nM, an IC50 [2, 4] of 6920 nM and an IC50 ([3]; Use) of 42 nM.
With CC[C@H](C)[C@@H]1NC(=O)[C@@H]2CSSC[C@@H]3NC(=O)[C@H](C(C)C)NC(=O)[C@H](CC(C)C)NC(=O)[C@H](CC(N)=O)NC(=O)[C@@H]4CCCN4C(=O)[C@H](CCCNC(=N)N)NC(=O)[C@H](CSSC[C@H](NC(=O)[C@@H](N)CC(=O)O)C(=O)N[C@@H](CC(C)C)C(=O)NCC(=O)N[C@@H](C(C)(C)C)C(=O)N[C@@H](CCSC)C(=O)N[C@@H](CCCNC(=N)N)C(=O)N[C@@H](CCCCN)C(=O)N2)NC(=O)[C@H](CSSC[C@@H](C(=O)N[C@@H](CCCCN)C(=O)N[C@@H](Cc2ccc(O)cc2)C(=O)N[C@H](C(=O)N[C@@H](Cc2ccccc2)C(N)=O)C(C)C)NC(=O)[C@H](Cc2c[nH]c4ccccc24)NC(=O)[C@H](CCCCN)NC(=O)[C@H](Cc2cnc[nH]2)NC(=O)[C@H]([C@@H](C)O)NC(=O)[C@H](CCCNC(=N)N)NC(=O)[C@H](CO)NC3=O)NC(=O)[C@H](CCCCN)NC(=O)[C@H](CC(=O)O)NC(=O)[C@H](CC(N)=O)NC(=O)[C@H](CC(=O)O)NC(=O)[C@@H]2CCCN2C1=O [compound 678] the IC50 ([1]; IonWorks Quattro, use-dependent protocol, hNav1.7, read-out: IWQ Use Nav1.7) was 700 nM, the IC50 ([2]; IWQ Use Nav1.5) was over 5000 nM and the IC50 ([3]; use-dependent protocol, hNav1.3) was 1360 nM.
With CC[C@H](C)[C@H](NC(=O)[C@@H](NC(=O)[C@H](Cc1ccc(O)cc1)NC(=O)[C@H](CCCCN)NC(=O)[C@@H]1CSSC[C@@H]2NC(=O)[C@H](CCCCN)NC(=O)[C@H](CC(=O)O)NC(=O)[C@H](CC(N)=O)NC(=O)[C@H](CC(=O)O)NC(=O)[C@@H]3CCCN3C(=O)[C@H]([C@@H](C)CC)NC(=O)[C@@H]3CSSC[C@H](NC(=O)[C@H](C(C)C)NC(=O)[C@H](CC(C)C)NC(=O)[C@H](CC(N)=O)NC(=O)[C@@H]4CCCN4C(=O)[C@H](CCCNC(=N)N)NC(=O)[C@H](CSSC[C@H](NC(=O)[C@@H](N)CC(=O)O)C(=O)N[C@@H](CC(C)C)C(=O)NCC(=O)N[C@@H](Cc4ccccc4)C(=O)N[C@@H](CCSC)C(=O)N[C@@H](CCCNC(=N)N)C(=O)N[C@@H](CCCCN)C(=O)N3)NC2=O)C(=O)N[C@@H](CO)C(=O)N[C@@H](CCCNC(=N)N)C(=O)N[C@@H]([C@@H](C)O)C(=O)N[C@@H](Cc2c[nH]cn2)C(=O)N[C@@H](CCCCN)C(=O)N[C@@H](Cc2c[nH]c3ccccc23)C(=O)N1)C(C)C)C(N)=O [compound 96] (H-DCLGFMRKCIPDNDKCCRPNLVCSRTHKWCKYVI-NH2; disulfide 2-17, 9-23, 16-30) the IC50 ([1]; IonWorks Quattro, use-dependent, […], read-out: IWQ Use Nav1.7) was 280 nM, the IC50 ([2]; IonWorks Quattro, use-dependent, […], read-out: IWQ Use Nav1.5) was 10800 nM and the IC50 ([3]; use-dependent, […]) was 280 nM.
For CC[C@H](C)[C@@H]1NC(=O)[C@@H]2CSSC[C@@H]3NC(=O)[C@H](C(C)C)NC(=O)[C@H](CC(C)C)NC(=O)[C@H](CC(N)=O)NC(=O)[C@@H]4CCCN4C(=O)[C@H](CCCNC(=N)N)NC(=O)[C@H](CSSC[C@H](NC(=O)[C@@H](N)CC(=O)O)C(=O)N[C@@H](CC(C)C)C(=O)NCC(=O)N[C@@H](C)C(=O)N[C@@H](CCSC)C(=O)N[C@@H](CCCNC(=N)N)C(=O)N[C@@H](CCCCN)C(=O)N2)NC(=O)[C@H](CSSC[C@@H](C(=O)N[C@@H](CCCCN)C(=O)N[C@@H](Cc2cccc4ccccc24)C(=O)N[C@H](C(=O)N[C@@H](Cc2ccccc2)C(N)=O)C(C)C)NC(=O)[C@H](Cc2c[nH]c4ccccc24)NC(=O)[C@H](CCCCN)NC(=O)[C@H](Cc2c[nH]cn2)NC(=O)[C@H]([C@@H](C)O)NC(=O)[C@H](CCCNC(=N)N)NC(=O)[C@H](CO)NC3=O)NC(=O)[C@H](CCCCN)NC(=O)[C@H](CC(=O)O)NC(=O)[C@H](CC(N)=O)NC(=O)[C@H](CC(=O)O)NC(=O)[C@@H]2CCCN2C1=O [compound 254] (H-DCLGAMRKCIPDNDKCCRPNLVCSRTHKWCK[1Nal]VF-NH2; disulfide 2-17, 9-23, 16-30), the IC50 ([1]; IonWorks Quattro, use-dependent block, hNav1.7, read-out: IWQ Use Nav1.7) was 60 nM, the IC50 ([2]; IonWorks Quattro, use-dependent block, hNav1.5, read-out: IWQ Use Nav1.5) was 5000 nM and the IC50 ([3]; use-dependent block, hNav1.3) was 200 nM.
In the case of CC[C@H](C)[C@@H]1NC(=O)[C@@H]2CSSC[C@@H]3NC(=O)[C@H](C(C)C)NC(=O)[C@H](CC(C)C)NC(=O)[C@H](CC(N)=O)NC(=O)[C@@H]4CCCN4C(=O)[C@H](CCCNC(=N)N)NC(=O)[C@H](CSSC[C@H](NC(=O)[C@@H](N)CC(=O)O)C(=O)N[C@@H](CC(C)C)C(=O)NCC(=O)N[C@@H](Cc4ccccc4)C(=O)N[C@@H](CCSC)C(=O)N[C@@H](CCCNC(=N)N)C(=O)N[C@@H](CCCCN)C(=O)N2)NC(=O)[C@H](CSSC[C@@H](C(=O)N[C@@H](CCCCN)C(=O)N[C@@H](Cc2ccc(O)cc2)C(=O)N[C@H](C(=O)N[C@@H](Cc2ccccc2)C(N)=O)C(C)C)NC(=O)[C@H](Cc2ccccc2)N(C)C(=O)[C@H](CCCCN)NC(=O)[C@H](Cc2c[nH]cn2)NC(=O)[C@H]([C@@H](C)O)NC(=O)[C@H](CCCNC(=N)N)NC(=O)[C@H](CO)NC3=O)NC(=O)[C@H](CCCCN)NC(=O)[C@H](CC(=O)O)NC(=O)[C@H](CC(N)=O)NC(=O)[C@H](CC(=O)O)NC(=O)[C@@H]2CCCN2C1=O [compound 359] (H-DCLGFMRKCIPDNDKCCRPNLVCSRTHK[NMeF]CKYVF-NH2; disulfide 2-17, 9-23, 16-30), the IC50 ([1]; Table 24, IonWorks Quattro, use, […], read-out: IWQ Use Nav1.7) is reported as 19200 nM, the IC50 ([2]; Table 24, IonWorks Quattro, use, […], read-out: IWQ Use Nav1.5) is reported as 18800 nM and the IC50 ([3]; Table 24, use, […]) is reported as 7390 nM.
CC[C@H](C)[C@@H]1NC(=O)[C@@H]2CSSC[C@@H]3NC(=O)[C@H](C(C)C)NC(=O)[C@H](Cc4cccc5ccccc45)NC(=O)[C@H](CC(N)=O)NC(=O)[C@@H]4CCCN4C(=O)[C@H](CCCNC(=N)N)NC(=O)[C@H](CSSC[C@H](NC(=O)[C@@H](N)CC(=O)O)C(=O)N[C@@H](CC(C)C)C(=O)NCC(=O)N[C@@H](Cc4ccccc4)C(=O)N[C@@H](CCSC)C(=O)N[C@@H](CCCNC(=N)N)C(=O)N[C@@H](CCCCN)C(=O)N2)NC(=O)[C@H](CSSC[C@@H](C(=O)N[C@@H](CCCCN)C(=O)N[C@@H](Cc2ccc(O)cc2)C(=O)N[C@H](C(=O)N[C@@H](Cc2ccccc2)C(N)=O)C(C)C)NC(=O)[C@H](Cc2c[nH]c4ccccc24)NC(=O)[C@H](CCCCN)NC(=O)[C@H](Cc2c[nH]cn2)NC(=O)[C@H]([C@@H](C)O)NC(=O)[C@H](CCCNC(=N)N)NC(=O)[C@H](CO)NC3=O)NC(=O)[C@H](CCCCN)NC(=O)[C@H](CC(=O)O)NC(=O)[C@H](CC(N)=O)NC(=O)[C@H](CC(=O)O)NC(=O)[C@@H]2CCCN2C1=O [compound 165] (H-DCLGFMRKCIPDNDKCCRPN[1Nal]VCSRTHKWCKYVF-NH2; disulfide 2-17, 9-23, 16-30) was tested, and the IC50 [1] was 80 nM, the IC50 [2, 4] was 10600 nM and the IC50 ([3]; Use) was 90 nM.
